According to patent US9211249B2, “Methods and compositions for transdermal delivery of caffeine in the form of solutions or suspensions” (priority 2013, dated 2015):

Test: Solubility of caffeine in caffeine-containing compositions containing various helper esters
Settings: compared with caffeine in pure water; Tables 1-9

solubility of caffeine in water with helper ester (statement in words): increased
SMILES: CC(C)OC(=O)[C@@H](N)Cc1c[nH]c2ccccc12 [tryptophan isopropyl ester]
